Where “and” joins values, the source holds several entries; their conditions need not be identical. Equal entries are not always repeated. Inconclusive results and toxic doses are left out.
Tested on: B6C3F1 mice, B16 melanoma ip, median survival T/C
Experiment: NCI In Vivo Anticancer Drug Screen. Data for tumor model B16 Melanoma (intraperitoneal) in B6C3F1 mice
Conditions: endpoint: median survival time, higher = longer survival
In short: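 Mice bearing transplanted tumor were dosed with compound or vehicle, and survival was recorded. Activity is expressed as the treated-group measurement (T) divided by the vehicle control measurement (C).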

[1] = dose: 100.0 mg/kg/injection, schedule: Q01DX009 (ip), vehicle: saline
[2] = dose: 200.0 mg/kg/injection, schedule: Q01DX009 (ip), vehicle: saline
[3] = dose: 400.0 mg/kg/injection, schedule: Q01DX009 (ip), vehicle: saline

Which results are given for `CC1(C)N=C(N)N=C(N)N1c1ccc(CCCCc2ccc(S(=O)(=O)F)cc2Cl)c(Cl)c1`?
T/C (dose: 1.56 mg/kg/injection, schedule: Q01DX009 (ip), vehicle: other): 100 % of control; T/C (dose: 1.56 mg/kg/injection, schedule: Q01DX009 (ip), vehicle: saline with Tween-80): 122 % of control; T/C (dose: 3.12 mg/kg/injection, schedule: Q01DX009 (ip), vehicle: other): 104 % of control; T/C (dose: 6.25 mg/kg/injection, schedule: Q01DX009 (ip), vehicle: other): 109 % of control; T/C (dose: 12.5 mg/kg/injection, schedule: Q01DX009 (ip), vehicle: other): 102 % of control; T/C (dose: 25.0 mg/kg/injection, schedule: Q01DX009 (ip), vehicle: saline with Tween-80): 156 % of control

What does the source list for `CCCC[C@H]1C(=O)O[C@H](C)[C@H](NC(=O)c2cccc(NC=O)c2O)C(=O)O[C@@H](C)[C@@H]1OC(=O)CC(C)C`?
T/C (dose: 0.12 mg/kg/injection, schedule: Q01DX009 (ip), vehicle: Klucel (hydroxypropylcellulose) (HPC)): 96 % of control; T/C (dose: 0.25 mg/kg/injection, schedule: Q01DX009 (ip), vehicle: Klucel (hydroxypropylcellulose) (HPC)): 96 % of control; T/C (dose: 0.5 mg/kg/injection, schedule: Q01DX009 (ip), vehicle: Klucel (hydroxypropylcellulose) (HPC)): 91 % of control and 98 % of control

Which results are given for `CC(C)(C)OC(=O)NC(CCC(=O)O)C(=O)O` (configuration not stated)?
T/C [1]: 107 % of control; T/C [2]: 107 % of control; T/C [3]: 94 % of control

`COc1ccc(CC2C(=O)NC(C)C(=O)N(C)C3C(=O)N(C)C(Cc4ccc(O)c(c4)Oc4ccc(cc4)C3O)C(=O)NC(C)C(=O)NC(C)C(=O)N2C)cc1` (configuration not stated) was tested. Which T/C (dose: 0.25 mg/kg/injection, schedule: Q01DX005 (ip), vehicle: saline with Tween-80) did it give?
The T/C was 123 % of control.

And the T/C (dose: 0.25 mg/kg/injection, schedule: Q01DX005 (iv), vehicle: saline with Tween-80)?
Its T/C is 89 % of control and 107 % of control.

And the T/C (dose: 0.5 mg/kg/injection, schedule: Q01DX005 (iv), vehicle: saline with Tween-80)?
The T/C was 98 % of control and 100 % of control.

And the T/C (dose: 0.5 mg/kg/injection, schedule: Q01DX009 (ip), vehicle: saline with Tween-80)?
The T/C was 174 % of control.

And the T/C (dose: 1.0 mg/kg/injection, schedule: Q01DX005 (iv), vehicle: saline with Tween-80)?
The T/C was 98 % of control and 99 % of control.

What about the T/C (dose: 2.0 mg/kg/injection, schedule: Q01DX005 (iv), vehicle: saline with Tween-80) of the same compound?
The T/C was 98 % of control and 104 % of control.

What about the T/C (dose: 2.0 mg/kg/injection, schedule: Q01DX009 (ip), vehicle: saline with Tween-80) of the same compound?
The T/C was 152 % of control.

With `O=C(NO)c1ccc(O)c(O)c1` as the compound, how does the T/C (dose: 22.5 mg/kg/injection, schedule: Q03HX024 (ip), vehicle: water) read?
The T/C was 106 % of control.

What about the T/C (dose: 25.0 mg/kg/injection, schedule: Q01DX009 (ip), vehicle: water) of the same compound?
The T/C was 100 % of control.

What about the T/C (dose: 45.0 mg/kg/injection, schedule: Q03HX024 (ip), vehicle: water) of the same compound?
The T/C was 111 % of control.

And the T/C (dose: 50.0 mg/kg/injection, schedule: Q01DX009 (ip), vehicle: water)?
The T/C was 109 % of control and 100 % of control.

What about the T/C (dose: 60.0 mg/kg/injection, schedule: Q01DX009 (ip), vehicle: water) of the same compound?
The T/C was 110 % of control.

What about the T/C (dose: 90.0 mg/kg/injection, schedule: Q03HX024 (ip), vehicle: water) of the same compound?
Its T/C is 116 % of control.

What about the T/C (dose: 100.0 mg/kg/injection, schedule: Q01DX009 (ip), vehicle: water) of the same compound?
The T/C was 111 % of control and 116 % of control and 99 % of control.

What about the T/C (dose: 116.0 mg/kg/injection, schedule: Q01DX009 (ip), vehicle: other) of the same compound?
Its T/C is 116 % of control.

What about the T/C (dose: 120.0 mg/kg/injection, schedule: Q01DX009 (ip), vehicle: water) of the same compound?
Its T/C is 110 % of control.

And the T/C (dose: 176.0 mg/kg/injection, schedule: Q01DX009 (ip), vehicle: other)?
The T/C was 120 % of control.

What about the T/C (dose: 176.0 mg/kg/injection, schedule: Q01DX009 (ip), vehicle: water) of the same compound?
The T/C was 120 % of control.

And the T/C (dose: 180.0 mg/kg/injection, schedule: Q03HX024 (ip), vehicle: water)?
The T/C was 119 % of control.

What about the T/C (dose: 200.0 mg/kg/injection, schedule: Q01DX009 (ip), vehicle: water) of the same compound?
Its T/C is 112 % of control and 123 % of control.

What about the T/C (dose: 270.0 mg/kg/injection, schedule: Q03HX024 (ip), vehicle: water) of the same compound?
Its T/C is 87 % of control.

Which T/C [1] does the source give for `CNC=O` here?
Its T/C is 101 % of control.

And the T/C [2]?
Its T/C is 108 % of control.

And the T/C [3]?
Its T/C is 95 % of control.

With `COc1cc2c(c(OC)c1OC)-c1ccc(OC)c(=O)cc1[C@@H](NC(=O)CCl)CC2` as the compound, how does the T/C (dose: 0.12 mg/kg/injection, schedule: Q01DX009 (ip), vehicle: saline with Tween-80) read?
The T/C was 154 % of control.

What about the T/C (dose: 0.25 mg/kg/injection, schedule: Q01DX009 (ip), vehicle: saline with Tween-80) of the same compound?
The T/C was 154 % of control.

Which results are given for `CN1N=C(N)c2cn(C3OC(COP(=O)(O)O)C(O)C3O)c3ncnc1c23` (configuration not stated)?
T/C (dose: 12.0 mg/kg/injection, schedule: Q01DX009 (ip), vehicle: Klucel (hydroxypropylcellulose) (HPC)): 93 % of control; T/C (dose: 25.0 mg/kg/injection, schedule: Q01DX009 (ip), vehicle: Klucel (hydroxypropylcellulose) (HPC)): 93 % of control; T/C (dose: 50.0 mg/kg/injection, schedule: Q01DX009 (ip), vehicle: Klucel (hydroxypropylcellulose) (HPC)): 96 % of control; T/C (dose: 100.0 mg/kg/injection, schedule: Q01DX009 (ip), vehicle: Klucel (hydroxypropylcellulose) (HPC)): 91 % of control

Source: PubChem BioAssay AID200 (DTP/NCI, 2004)
